Assay results reported in patent US20040131692A1, “Nanoparticles made of protein with coupled apolipoprotein e for penetration of the blood-brain barrier and methods for the production thereof” (priority 2001, published 2004).

Tested on: mice
Assay: tail-flick test, analgesic effect (nociceptive response) after intravenous injection
Type: in vivo
Conditions: i.v. dalargin 7.5 mg/kg, comparison data originate from an earlier experiment
Description: The preparation was applied to mice […] at a dosage of 7.5 mg/kg of dalargin. This corresponds to an application amount of 200 μl of the aforementioned preparation per mouse, based on an average body weight of a mouse of 20 g.
The analgesic effect (nociceptive response) was determined by the tail-flick test, in which a hot beam of light is projected onto the tail of the mouse and the time until the mouse draws away its tail is measured. After 10 seconds (=100% MPE) the experiment was truncated so as not to cause injury to the mouse. The maximally possible analgesic effect (MPE) was determined in accordance with the following formula: [formula]
Negative MPE values result if after administration of the administration the mouse draws away its tail before the treatment.
With the aid of dalargin-loaded avidin-modified HSA nanoparticles the analgesic effects indicated in Table 1 were obtained after intravenous injection.

## dalargin [Dalargin solution]
30 min
  Analgesic effect [% MPE]: 10.0 ± 9.8 % MPE
45 min
  Analgesic effect [% MPE]: 9.3 ± 2.8 % MPE
90 min
  Analgesic effect [% MPE]: 4.7 ± 5.1 % MPE
120 min
  Analgesic effect [% MPE]: 2.0 ± 6.1 % MPE
